Measured values: US9181116B2, “Organophosphorus derivatives and use thereof as uncoupling agents” (RHODIA OPERATIONS, priority 2009, dated 2015)

Experiments:
[1] = system: strain Schinella granuli; assay: Oxytop respirometry screening test (oxygen overconsumption = uncoupling); assay type: cell-based
Excerpt: In order to evaluate the reduction in sludge production by an uncoupling chemical agent in respirometry (in order to measure oxygen overconsumption, a characteristic signature of the effects of an uncoupling agent), the oxytop® test technique is used containing a synthetic medium and bacterial strains particularly sensitive to uncoupling agents.
The method and the apparatus used are those described in Example 3 of WO 2004/113236 cited as a reference. The strain Schinella granuli was used as an inoculum in this methodology (which differs from Example 3 of WO 2004/113236 which used activated sludge).
They are expressed as an uncoupling percentage relatively to the control (not comprising any uncoupling agent). This means that for Ex2 at 0.05 mg/l, we have an oxygen overconsumption of 18% relatively to the control not comprising any uncoupling agent. THPS (tetrakis(hydromethyl)phosphonium sulfate) produces uncoupling effects in the oxitop® respirometry tests of 16±8% for a rated concentration of 3 ppm, the 95% confidence interval of THPS in terms of uncoupling factor being, values computed from results obtained in 26 Oxitop® tests.

[2] = system: activated sludge from the urban STEP of St-Fons; assay: Chemostat biological pilot, reduction of activated sludge production (flash mixing); conditions: 2.9 ppm, 3 months injection
Excerpt: Detection of the reduction of activated sludge by an organophosphonium derivative in a Chemostat® biological pilot.
Tests on biological pilots continuously fed with synthetic effluent dealt with the molecule of Ex2 (Example 2 above), show significant uncoupling effects on the reduction of sludge production. The biological pilots have a volume of 5 liters and are continuously aerated; a purge of the latter is made everyday (except on weekends) in order to obtain a sludge age of about 7 days. The biological pilots were seeded with activated sludge from the urban STEP of St-Fons (France). After a short acclimatization period of the sludge, the treatment with the molecule Ex2 was carried out according to the flash mixing method also described in Example 1 of WO 2004/113236 cited as a reference.
An experiment, for which the total period of injection of the uncoupling product according to the flash mixing method lasted for 3 months, gave the following results:
A complementary experiment, this time using two different grades of the compound Ex2 of Example 2 above, designated as EX21 and EX22a hereafter, gave the following results over a 1 month injection period: […]

Structure (SMILES): O=S(=O)([O-])[O-].OC[P+](CO)(CO)CO.OC[P+](CO)(CO)CO [THPS, tetrakis(hydromethyl)phosphonium sulfate]
- uncoupling percentage relatively to the control (oxygen overconsumption) ([1]; 3 ppm (rated concentration), THPS: average over 26 tests): 16±8%
- 95% confidence interval in terms of uncoupling factor ([1]; 3 ppm, computed from 26 Oxitop tests): 10-22
- Growth rate [2]: 0.171 g of MLSS/g of removed COD
- Reduction in growth rate ([2]; vs untreated control): 9.0%
- Reduction in sludge production ([2]; vs untreated control): 13.6%
